The values that follow come from BindingDB's records for doi:10.1016/j.bmcl.2008.06.042 (Ariad Pharmaceuticals, 2008).

For this assay, the target named is FLT3 receptor tyrosine kinase (Homo sapiens) (UniProt P36888). Description: Inhibition of Flt3.
Chain of FLT3 receptor tyrosine kinase (Homo sapiens) (P36888 whole entry, looked up): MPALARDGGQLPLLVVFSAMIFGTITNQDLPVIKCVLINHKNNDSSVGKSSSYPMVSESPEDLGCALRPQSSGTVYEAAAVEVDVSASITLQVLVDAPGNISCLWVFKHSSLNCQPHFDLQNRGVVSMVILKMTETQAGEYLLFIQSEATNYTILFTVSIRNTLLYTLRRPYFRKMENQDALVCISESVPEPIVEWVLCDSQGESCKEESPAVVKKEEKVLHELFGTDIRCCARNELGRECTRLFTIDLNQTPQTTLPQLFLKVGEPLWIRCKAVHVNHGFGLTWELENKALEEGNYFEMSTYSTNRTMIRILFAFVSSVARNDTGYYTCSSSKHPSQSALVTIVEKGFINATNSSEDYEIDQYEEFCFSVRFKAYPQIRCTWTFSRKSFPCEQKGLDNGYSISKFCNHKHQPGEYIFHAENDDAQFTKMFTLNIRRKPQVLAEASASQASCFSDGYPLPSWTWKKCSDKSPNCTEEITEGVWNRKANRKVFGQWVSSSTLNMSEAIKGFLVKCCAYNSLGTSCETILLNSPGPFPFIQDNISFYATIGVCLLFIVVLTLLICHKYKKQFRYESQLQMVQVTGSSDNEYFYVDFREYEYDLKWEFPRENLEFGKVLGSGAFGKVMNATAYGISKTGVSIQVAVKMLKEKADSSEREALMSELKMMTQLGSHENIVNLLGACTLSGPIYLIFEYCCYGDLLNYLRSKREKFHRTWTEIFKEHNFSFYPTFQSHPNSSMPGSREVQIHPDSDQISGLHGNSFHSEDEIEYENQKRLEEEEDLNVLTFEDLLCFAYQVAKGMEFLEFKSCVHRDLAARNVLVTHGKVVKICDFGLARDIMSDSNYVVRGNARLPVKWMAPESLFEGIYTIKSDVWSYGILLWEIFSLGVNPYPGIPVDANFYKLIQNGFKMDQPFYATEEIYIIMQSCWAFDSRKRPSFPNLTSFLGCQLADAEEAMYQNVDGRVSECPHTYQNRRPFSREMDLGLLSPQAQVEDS

The term IC50 denotes the concentration that gives 50% inhibition. Low readings indicate inhibition by little substance, high ones a need for much substance. `Cc1cccc(C)c1/C=C/n1cnc2c(Nc3ccc(P(C)(C)=O)cc3)ncnc21` [AP24149] registered an IC50 above 1000 nM.
